According to PMC10709440, “High-throughput ligand profile characterization in novel cell lines expressing seven heterologous insect olfactory receptors for the detection of volatile plant biomarkers” (Scientific Reports, 2023):
Read-outs that look alike come from different tables or passages of the source.

Tests used:
[1] = target: T1, Drosophila OR49b (Drosophila melanogaster, UniProt Q9V6H2); assay: cell-based; details: for OR49b response (VUAA1-normalized) at 1 μM / OR49b response (VUAA1-normalized) at 10 μM / OR49b response (VUAA1-normalized) at 100 μM / Average response: OR49b cell line; for OR49b response (VUAA1-normalized) at 1 μM / activation at 1 µM: VOC concentration 1 μM; for OR49b response (VUAA1-normalized) at 10 μM / activation at 10 µM: VOC concentration 10 μM; for OR49b response (VUAA1-normalized) at 100 μM / activation at 100 µM: VOC concentration 100 μM; for Average response: mean of biological replicates; for activation at 1 µM / activation at 10 µM / activation at 100 µM: HEK293, read-out: OR49b response (VUAA1-normalized response)
T1 construct: expressed in transfected cells
T1 sequence (Q9V6H2 1-375): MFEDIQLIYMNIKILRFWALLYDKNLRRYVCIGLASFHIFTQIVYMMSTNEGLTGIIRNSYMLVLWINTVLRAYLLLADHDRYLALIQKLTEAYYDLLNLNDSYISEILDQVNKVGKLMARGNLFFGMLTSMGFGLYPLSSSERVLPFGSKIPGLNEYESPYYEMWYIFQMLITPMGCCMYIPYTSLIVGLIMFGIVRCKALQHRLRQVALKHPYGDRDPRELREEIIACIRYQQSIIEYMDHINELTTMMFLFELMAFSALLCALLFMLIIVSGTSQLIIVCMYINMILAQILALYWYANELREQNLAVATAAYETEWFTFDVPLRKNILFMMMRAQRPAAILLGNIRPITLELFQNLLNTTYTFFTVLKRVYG
T1 sequence (Q9VNB5 1-486 partner): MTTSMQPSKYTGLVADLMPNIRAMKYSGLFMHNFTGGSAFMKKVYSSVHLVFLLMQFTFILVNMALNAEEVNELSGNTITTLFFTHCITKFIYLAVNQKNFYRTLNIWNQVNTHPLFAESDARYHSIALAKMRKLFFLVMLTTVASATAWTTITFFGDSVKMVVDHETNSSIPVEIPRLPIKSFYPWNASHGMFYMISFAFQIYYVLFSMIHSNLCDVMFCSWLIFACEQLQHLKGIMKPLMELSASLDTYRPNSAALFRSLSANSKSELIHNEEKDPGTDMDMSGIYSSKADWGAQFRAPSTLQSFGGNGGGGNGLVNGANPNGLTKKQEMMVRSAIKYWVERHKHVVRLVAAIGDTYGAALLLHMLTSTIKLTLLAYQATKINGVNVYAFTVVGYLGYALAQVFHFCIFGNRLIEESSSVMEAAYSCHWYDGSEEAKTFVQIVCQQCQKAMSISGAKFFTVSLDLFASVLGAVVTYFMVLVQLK
Method in brief: (§1)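 HEK293 lines stably expressing each Drosophila OR with GCaMP6, doxycycline-induced (1 μg/mL) 48 or 72 h. Fluorescence recorded 5 s baseline then 30 s after VOC injection at pH 7.3; ΔF=(FMAX−F0)/F0, normalized to 50 µM VUAA1 response per line, triplicate wells averaged; concentration series 0.01–100 μM.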

[2] = target: T2, Drosophila OR71a (Drosophila melanogaster, UniProt Q9VUK5); assay: Calcium ion fluorescence (GCaMP6) assay, OR71a stable HEK293 cell line; format: cell-based; details: for OR71a response (VUAA1-normalized) at 1 μM / OR71a response (VUAA1-normalized) at 10 μM / OR71a response (VUAA1-normalized) at 100 μM / Average response: OR71a cell line; for OR71a response (VUAA1-normalized) at 1 μM: VOC concentration 1 μM; for OR71a response (VUAA1-normalized) at 10 μM: VOC concentration 10 μM; for OR71a response (VUAA1-normalized) at 100 μM: VOC concentration 100 μM; for Average response: VUAA1-normalized response, mean of biological replicates; for activation at 1 µM / activation at 10 µM / activation at 100 µM: HEK293, read-out: OR71a response (VUAA1-normalized response)
T2 construct: expressed in transfected cells
T2 sequence (Q9VUK5 1-378): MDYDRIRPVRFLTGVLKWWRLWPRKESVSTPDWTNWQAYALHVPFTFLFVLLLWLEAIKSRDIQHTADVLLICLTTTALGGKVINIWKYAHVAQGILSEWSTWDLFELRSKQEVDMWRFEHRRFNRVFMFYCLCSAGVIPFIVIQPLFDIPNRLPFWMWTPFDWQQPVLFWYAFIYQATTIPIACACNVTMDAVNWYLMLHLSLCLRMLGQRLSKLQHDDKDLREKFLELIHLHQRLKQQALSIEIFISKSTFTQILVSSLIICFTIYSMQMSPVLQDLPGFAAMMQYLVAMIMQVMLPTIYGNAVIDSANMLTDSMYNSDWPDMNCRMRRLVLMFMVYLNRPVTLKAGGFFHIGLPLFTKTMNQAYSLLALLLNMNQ
T2 sequence (Q9VNB5 1-486 partner): T1 sequence (Q9VNB5 1-486 partner)
Method in brief: as §1

[3] = ligand concentration 1 (unit not given), threshold 0.05, below shown as 0
[4] = ligand concentration 10 (unit not given), threshold 0.05, below shown as 0
[5] = ligand concentration 100 (unit not given), threshold 0.05, below shown as 0
[6] = ligand concentration 1 (unit not given), 0.05 threshold, values below shown as 0
[7] = ligand concentration 10 (unit not given), 0.05 threshold, values below shown as 0
[8] = ligand concentration 100 (unit not given), 0.05 threshold, values below shown as 0
[9] = concentration 1, normalized fluorescence change, values below 0.05 threshold given as 0
[10] = concentration 10, normalized fluorescence change, values below 0.05 threshold given as 0
[11] = concentration 100, normalized fluorescence change, values below 0.05 threshold given as 0

Row | SMILES | OR49b response (VUAA1-normalized) at 1 μM [1] | OR49b response (VUAA1-normalized) at 10 μM [1] | Average response ([1]; odorant cc. 1 µM) | Average response ([1]; odorant cc. 10 µM) | Average response ([1]; odorant cc. 100 µM) | DF norm AVERAGE OR49b [1, 3] | DF norm AVERAGE OR49b [1, 4] | DF norm AVERAGE OR49b [1, 5] | Average response ([2]; cc. 1 µM) | Average response ([2]; cc. 10 µM) | Average response ([2]; cc. 100 µM) | DF norm AVERAGE OR71a [2, 3] | DF norm AVERAGE OR71a [2, 4] | DF norm AVERAGE OR71a [2, 5] | activation at 1 µM [1] [%] | activation at 10 µM [1] [%] | activation at 100 µM [1] [%] | activation at 1 µM [2] [%] | activation at 10 µM [2] [%] | activation at 100 µM [2] [%] | also measured
1 | C=C1CCC2(C(C)C)CC12 (centres unmarked) [sabinene] | 0.00 | 0.00 | 0.00 | 0.00 | 0.0368 | 0 | 0 | 0 | 0.00 | 0.00 | 0.0235 | 0 | 0 | 0 | – | – | – | – | – | – | OR49b response (VUAA1-normalized) at 100 μM [1]: 0.00; OR71a response (VUAA1-normalized) at 1 μM [2]: 0.00; OR71a response (VUAA1-normalized) at 10 μM [2]: 0.00; OR71a response (VUAA1-normalized) at 100 μM [2]: 0.00
2 | CC/C=C\CCOC(C)=O [z3-hexenyl acetate] | – | – | 0.0379 | 0.0171 | 0.04 | – | – | – | 0.00 | 0.00 | 0.00 | – | – | – | – | – | – | – | – | – | DF norm AVERAGE OR49b [1, 6]: 0; DF norm AVERAGE OR49b [1, 7]: 0; DF norm AVERAGE OR49b [1, 8]: 0; DF norm AVERAGE OR71a [2, 6]: 0; DF norm AVERAGE OR71a [2, 7]: 0; DF norm AVERAGE OR71a [2, 8]: 0
3 | CCCCOC(=O)CC [butyl propanoate] | – | – | 0.00 | 0.00 | 0.00 | 0 | 0 | 0 | 0.00 | 0.00 | 0.03 | 0 | 0 | 0 | 0 | 0 | 0 | 0 | 0 | 0 | –
4 | OCCc1ccccc1 [phenethyl alcohol] | 0.00 | 0.00 | 0.0257 | 0.00 | 0.09 | 0 | 0 | 0.09318 | 0.09 | 0.03 | 0.0218 | 0.08619 | 0 | 0 | – | – | – | – | – | – | OR49b response (VUAA1-normalized) at 100 μM [1]: 0.09; OR71a response (VUAA1-normalized) at 1 μM [2]: 0.09; OR71a response (VUAA1-normalized) at 10 μM [2]: 0.00; OR71a response (VUAA1-normalized) at 100 μM [2]: 0.00
5 | CCCCCCCCCCCCCC [tetradecane] | 0.07 | 0.05 | 0.07 | 0.05 | 0.0348 | – | – | – | 0.0218 | 0.0215 | 0.0462 | – | – | – | – | – | – | – | – | – | OR49b response (VUAA1-normalized) at 100 μM [1]: 0.00; DF norm AVERAGE OR49b ([1]; ligand concentration 1 (unit not given), […]): 0.06864; DF norm AVERAGE OR49b ([1]; ligand concentration 10 (unit not given), […]): 0.05202; DF norm AVERAGE OR49b [1, 8]: 0; OR71a response (VUAA1-normalized) at 1 μM [2]: 0.00; OR71a response (VUAA1-normalized) at 10 μM [2]: 0.00; OR71a response (VUAA1-normalized) at 100 μM [2]: 0.00; DF norm AVERAGE OR71a [2, 6]: 0; DF norm AVERAGE OR71a [2, 7]: 0; DF norm AVERAGE OR71a [2, 8]: 0
6 | COc1cccc(OC)c1 [1,3-dimethoxy benzene] | – | – | 0.00 | 0.00 | 0.00 | – | – | – | 0.00 | 0.04 | 0.00 | – | – | – | 0 | 0 | 0 | 0 | 0 | 0 | DF norm AVERAGE OR49b [1]: 0; DF norm AVERAGE OR71a [2, 9]: 0; DF norm AVERAGE OR71a [2, 10]: 0; DF norm AVERAGE OR71a [2, 11]: 0
7 | CC1=CCC2CC1C2(C)C (stereo not drawn) [alpha-pinene] | – | – | 0.0281 | 0.00 | 0.00 | 0 | 0 | 0 | 0.0368 | 0.00 | 0.00 | 0 | 0 | 0 | 0 | 0 | 0 | 0 | 0 | 0 | –
8 | CC1=CCC2C(C1)C2(C)C (centres unmarked) [3-carene] | – | – | 0.00 | 0.00 | 0.00 | – | – | – | 0.00 | 0.00 | 0.00 | – | – | – | 0 | 0 | 0 | 0 | 0 | 0 | DF norm AVERAGE OR49b [1]: 0; DF norm AVERAGE OR71a [2, 9]: 0; DF norm AVERAGE OR71a [2, 10]: 0; DF norm AVERAGE OR71a [2, 11]: 0
